Test results as given in PubChem BioAssay (NCI).
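Method: 48-hour compound exposure of cells in 96-well plates, five concentrations, linear interpolation of endpoints. The concentration for 50% growth inhibition is given as GI50. TGI denotes the concentration required for complete inhibition of growth.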

What was measured:
Assay in all cases: NCI-60 cell line screen, 48 h
[1] = tested on: 786-0 renal
[2] = tested on: A498 renal
[3] = tested on: A549 NSCLC
[4] = tested on: ACHN renal
[5] = tested on: CAKI-1 renal
[6] = tested on: CCRF-CEM leukemia
[7] = tested on: DU-145 prostate
[8] = tested on: EKVX NSCLC
[9] = tested on: HCC-2998 colon
[10] = tested on: HCT-116 colon
[11] = tested on: HCT-15 colon
[12] = tested on: HL-60(TB) leukemia
[13] = tested on: HOP-62 NSCLC
[14] = tested on: HOP-92 NSCLC
[15] = tested on: HS 578T breast
[16] = tested on: HT29 colon
[17] = tested on: IGROV1 ovarian
[18] = tested on: K-562 leukemia
[19] = tested on: KM12 colon
[20] = tested on: LOX IMVI melanoma
[21] = tested on: M14 melanoma
[22] = tested on: MALME-3M melanoma
[23] = tested on: MCF7 breast
[24] = tested on: MDA-MB-231 breast
[25] = tested on: MDA-MB-435
[26] = tested on: MOLT-4 leukemia
[27] = tested on: NCI-H23 lung
[28] = tested on: NCI-H460 lung
[29] = tested on: NCI-H522 lung
[30] = tested on: NCI/ADR-RES ovarian
[31] = tested on: OVCAR-3 ovarian
[32] = tested on: OVCAR-4 ovarian
[33] = tested on: OVCAR-5 ovarian
[34] = tested on: OVCAR-8 ovarian
[35] = tested on: PC-3 prostate
[36] = tested on: RPMI-8226 leukemia
[37] = tested on: RXF 393 renal
[38] = tested on: SF-268 CNS
[39] = tested on: SF-295 CNS
[40] = tested on: SF-539 CNS
[41] = tested on: SK-MEL-28 melanoma
[42] = tested on: SK-MEL-5 melanoma
[43] = tested on: SK-OV-3 ovarian
[44] = tested on: SN12C renal
[45] = tested on: SNB-19 CNS
[46] = tested on: SNB-75 CNS
[47] = tested on: SR leukemia
[48] = tested on: SW-620 colon
[49] = tested on: T-47D breast
[50] = tested on: TK-10 renal
[51] = tested on: U251 CNS
[52] = tested on: UACC-257 melanoma
[53] = tested on: UACC-62 melanoma
[54] = tested on: UO-31 renal

Structure (SMILES): CC(N)(Cc1c[nH]c2cccc(F)c12)C(=O)O (configuration not stated)
- GI50 [1]: > 1000 µM
- TGI [1]: > 1000 µM
- GI50 [2]: > 1000 µM
- TGI [2]: > 1000 µM
- GI50 [3]: > 1000 µM
- TGI [3]: > 1000 µM
- GI50 [4]: > 1000 µM
- TGI [4]: > 1000 µM
- GI50 [5]: > 1000 µM
- TGI [5]: > 1000 µM
- GI50 [6]: > 1000 µM
- TGI [6]: > 1000 µM
- GI50 [7]: > 1000 µM
- TGI [7]: > 1000 µM
- GI50 [8]: > 1000 µM
- TGI [8]: > 1000 µM
- GI50 [9]: > 1000 µM
- TGI [9]: > 1000 µM
- GI50 [10]: > 1000 µM
- TGI [10]: > 1000 µM
- GI50 [11]: > 1000 µM
- TGI [11]: > 1000 µM
- GI50 [12]: > 1000 µM
- TGI [12]: > 1000 µM
- GI50 [13]: 645 µM
- TGI [13]: > 1000 µM
- TGI [14]: > 1000 µM
- GI50 [15]: 786 µM
- TGI [15]: > 1000 µM
- GI50 [16]: > 1000 µM
- TGI [16]: > 1000 µM
- GI50 [17]: 364 µM
- TGI [17]: > 1000 µM
- GI50 [18]: > 1000 µM
- TGI [18]: > 1000 µM
- GI50 [19]: > 1000 µM
- TGI [19]: > 1000 µM
- GI50 [20]: > 1000 µM
- TGI [20]: > 1000 µM
- GI50 [21]: > 1000 µM
- TGI [21]: > 1000 µM
- GI50 [22]: > 1000 µM
- TGI [22]: > 1000 µM
- GI50 [23]: > 1000 µM
- TGI [23]: > 1000 µM
- GI50 [24]: > 1000 µM
- TGI [24]: > 1000 µM
- GI50 [25]: > 1000 µM
- TGI [25]: > 1000 µM
- GI50 [26]: > 1000 µM
- TGI [26]: > 1000 µM
- GI50 [27]: > 1000 µM
- TGI [27]: > 1000 µM
- GI50 [28]: > 1000 µM
- TGI [28]: > 1000 µM
- GI50 [29]: > 1000 µM
- TGI [29]: > 1000 µM
- GI50 [30]: > 1000 µM
- TGI [30]: > 1000 µM
- GI50 [31]: > 1000 µM
- TGI [31]: > 1000 µM
- GI50 [32]: > 1000 µM
- TGI [32]: > 1000 µM
- GI50 [33]: > 1000 µM
- TGI [33]: > 1000 µM
- GI50 [34]: > 1000 µM
- TGI [34]: > 1000 µM
- GI50 [35]: > 1000 µM
- TGI [35]: > 1000 µM
- GI50 [36]: > 1000 µM
- TGI [36]: > 1000 µM
- GI50 [37]: > 1000 µM
- TGI [37]: > 1000 µM
- GI50 [38]: > 1000 µM
- TGI [38]: > 1000 µM
- GI50 [39]: > 1000 µM
- TGI [39]: > 1000 µM
- GI50 [40]: > 1000 µM
- TGI [40]: > 1000 µM
- GI50 [41]: > 1000 µM
- TGI [41]: > 1000 µM
- GI50 [42]: > 1000 µM
- TGI [42]: > 1000 µM
- GI50 [43]: 992 µM
- TGI [43]: > 1000 µM
- GI50 [44]: > 1000 µM
- TGI [44]: > 1000 µM
- GI50 [45]: > 1000 µM
- TGI [45]: > 1000 µM
- GI50 [46]: 405 µM
- TGI [46]: > 1000 µM
- GI50 [47]: > 1000 µM
- TGI [47]: > 1000 µM
- GI50 [48]: > 1000 µM
- TGI [48]: > 1000 µM
- GI50 [49]: 978 µM
- TGI [49]: > 1000 µM
- GI50 [50]: > 1000 µM
- TGI [50]: > 1000 µM
- GI50 [51]: > 1000 µM
- TGI [51]: > 1000 µM
- GI50 [52]: > 1000 µM
- TGI [52]: > 1000 µM
- GI50 [53]: > 1000 µM
- TGI [53]: > 1000 µM
- GI50 [54]: 138 µM
- TGI [54]: > 1000 µM
